Laboratory results from ChEMBL document CHEMBL6074671, “Discovery of Pyridine-2-Carboxamides Derivatives as Potent and Selective HPK1 Inhibitors for the Treatment of Cancer” (J Med Chem, 2024).

How the values were obtained:
[1] = Genotoxicity in Salmonella typhimurium TA98 incubated for 48 to 72 hrs in presence of S9 fraction by AMES test; format: toxicity, subcellular; conditions: salmonella enterica subsp. enterica serovar typhimurium, time 48-72 hrs
[2] = Toxicity in C57BL/6 mouse implanted with mouse MC38 cells assessed as effect on body weight loss at high dose, po BID measured after 12 days in presence of anti-PD-1; format: organism-based; conditions: in vivo, 288 h, time 12 day
[3] = target: Serine/threonine-protein kinase TAO2 (Homo sapiens, UniProt Q9UL54); assay: Inhibition of TAOK2 (unknown origin)
[4] = target: Serine/threonine-protein kinase PAK 2 (Homo sapiens, UniProt Q13177); assay: Inhibition of PAK2 (unknown origin)
[5] = Inhibition of pSLP76 in human PBMC cells incubated for 4 hrs by HTRF method; format: cell-based
[6] = Dose normalized AUC (0 to 24 hrs) in Balb/c mouse at 10 mg/kg, po; format: ADME, organism-based; conditions: in vivo
[7] = in vivo; conditions: cynomolgus monkey, plasma, iv, 1 mg/kg
Description: Clearance in Cynomolgus monkey plasma at 1 mg/kg, iv

[8] = target: Tyrosine-protein kinase Blk (Homo sapiens, UniProt P51451); assay: Inhibition of BLK (unknown origin)
[9] = target: Mitogen-activated protein kinase kinase kinase kinase 2 (Homo sapiens, UniProt Q12851); assay: Inhibition of human recombinant full length GST tagged N-terminal MAP4K2 (1 to 820 end residues) expressed in insect Sf21 cells
[10] = in vivo; conditions: Balb/c, mouse, iv, 1 mg/kg
Description: Volume of distribution in Balb/c mouse at 1 mg/kg, iv

[11] = Genotoxicity in […] WP2 uvrA incubated for 48 to 72 hrs in presence of S9 fraction by AMES test; format: toxicity, subcellular; conditions: time 48-72 hrs
[12] = Oral bioavailability in Balb/c mouse at 10 mg/kg; format: ADME, organism-based; conditions: in vivo
[13] = Dose normalized AUC (0 to 24 hrs) in Sprague-Dawley rat at 10 mg/kg, po; format: ADME, organism-based; conditions: in vivo
[14] = Inhibition of ABL (unknown origin); parameters: species or system Homo sapiens
[15] = Genotoxicity in Salmonella typhimurium TA1537 incubated for 48 to 72 hrs in presence of S9 fraction by AMES test; format: toxicity, subcellular; conditions: salmonella enterica subsp. enterica serovar typhimurium, time 48-72 hrs
[16] = target: Cytochrome P450 2C9 (Homo sapiens, UniProt P11712); assay: Inhibition of CYP2C9 in human liver microsomes using diclofenac 4-hydroxylation as substrate incubated for 10 mins in presence of NADPH by LC-MS/MS analysis; format: ADME, Microsome
[17] = target: Tyrosine-protein kinase Lyn (Homo sapiens, UniProt P07948); assay: Inhibition of LYNa (unknown origin)
[18] = target: Cyclin-dependent kinase 2 (Homo sapiens, UniProt P24941); assay: Inhibition of CDK2 (unknown origin)

Chain of Tyrosine-protein kinase Blk (P51451 whole entry): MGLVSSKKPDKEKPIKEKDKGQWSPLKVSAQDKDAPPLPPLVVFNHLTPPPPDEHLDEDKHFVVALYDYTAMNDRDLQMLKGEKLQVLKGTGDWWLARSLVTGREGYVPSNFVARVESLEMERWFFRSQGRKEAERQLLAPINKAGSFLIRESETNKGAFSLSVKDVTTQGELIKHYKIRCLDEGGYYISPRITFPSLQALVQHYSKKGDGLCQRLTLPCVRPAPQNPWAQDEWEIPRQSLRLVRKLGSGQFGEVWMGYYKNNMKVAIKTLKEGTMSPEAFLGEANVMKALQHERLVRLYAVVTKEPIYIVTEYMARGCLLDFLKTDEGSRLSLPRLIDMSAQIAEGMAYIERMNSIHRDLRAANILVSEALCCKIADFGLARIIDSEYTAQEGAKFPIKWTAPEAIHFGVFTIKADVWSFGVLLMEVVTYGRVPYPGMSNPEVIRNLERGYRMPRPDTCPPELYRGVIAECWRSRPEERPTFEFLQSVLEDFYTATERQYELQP
Chain of Serine/threonine-protein kinase PAK 2 (Q13177 whole entry): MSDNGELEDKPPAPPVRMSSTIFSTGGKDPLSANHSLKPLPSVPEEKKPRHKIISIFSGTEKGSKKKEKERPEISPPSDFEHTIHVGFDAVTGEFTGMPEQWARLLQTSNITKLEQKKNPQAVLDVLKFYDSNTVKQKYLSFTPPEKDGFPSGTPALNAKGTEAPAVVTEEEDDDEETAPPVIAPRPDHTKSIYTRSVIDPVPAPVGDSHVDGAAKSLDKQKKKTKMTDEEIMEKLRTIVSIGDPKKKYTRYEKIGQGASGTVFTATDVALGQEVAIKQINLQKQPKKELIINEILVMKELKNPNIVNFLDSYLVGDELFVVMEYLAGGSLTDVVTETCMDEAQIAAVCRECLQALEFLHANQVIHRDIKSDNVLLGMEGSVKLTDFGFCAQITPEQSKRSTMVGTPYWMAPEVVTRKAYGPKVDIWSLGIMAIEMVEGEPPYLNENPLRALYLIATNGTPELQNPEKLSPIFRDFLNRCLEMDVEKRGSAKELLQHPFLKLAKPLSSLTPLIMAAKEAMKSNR
Chain of Serine/threonine-protein kinase TAO2 (Q9UL54 whole entry): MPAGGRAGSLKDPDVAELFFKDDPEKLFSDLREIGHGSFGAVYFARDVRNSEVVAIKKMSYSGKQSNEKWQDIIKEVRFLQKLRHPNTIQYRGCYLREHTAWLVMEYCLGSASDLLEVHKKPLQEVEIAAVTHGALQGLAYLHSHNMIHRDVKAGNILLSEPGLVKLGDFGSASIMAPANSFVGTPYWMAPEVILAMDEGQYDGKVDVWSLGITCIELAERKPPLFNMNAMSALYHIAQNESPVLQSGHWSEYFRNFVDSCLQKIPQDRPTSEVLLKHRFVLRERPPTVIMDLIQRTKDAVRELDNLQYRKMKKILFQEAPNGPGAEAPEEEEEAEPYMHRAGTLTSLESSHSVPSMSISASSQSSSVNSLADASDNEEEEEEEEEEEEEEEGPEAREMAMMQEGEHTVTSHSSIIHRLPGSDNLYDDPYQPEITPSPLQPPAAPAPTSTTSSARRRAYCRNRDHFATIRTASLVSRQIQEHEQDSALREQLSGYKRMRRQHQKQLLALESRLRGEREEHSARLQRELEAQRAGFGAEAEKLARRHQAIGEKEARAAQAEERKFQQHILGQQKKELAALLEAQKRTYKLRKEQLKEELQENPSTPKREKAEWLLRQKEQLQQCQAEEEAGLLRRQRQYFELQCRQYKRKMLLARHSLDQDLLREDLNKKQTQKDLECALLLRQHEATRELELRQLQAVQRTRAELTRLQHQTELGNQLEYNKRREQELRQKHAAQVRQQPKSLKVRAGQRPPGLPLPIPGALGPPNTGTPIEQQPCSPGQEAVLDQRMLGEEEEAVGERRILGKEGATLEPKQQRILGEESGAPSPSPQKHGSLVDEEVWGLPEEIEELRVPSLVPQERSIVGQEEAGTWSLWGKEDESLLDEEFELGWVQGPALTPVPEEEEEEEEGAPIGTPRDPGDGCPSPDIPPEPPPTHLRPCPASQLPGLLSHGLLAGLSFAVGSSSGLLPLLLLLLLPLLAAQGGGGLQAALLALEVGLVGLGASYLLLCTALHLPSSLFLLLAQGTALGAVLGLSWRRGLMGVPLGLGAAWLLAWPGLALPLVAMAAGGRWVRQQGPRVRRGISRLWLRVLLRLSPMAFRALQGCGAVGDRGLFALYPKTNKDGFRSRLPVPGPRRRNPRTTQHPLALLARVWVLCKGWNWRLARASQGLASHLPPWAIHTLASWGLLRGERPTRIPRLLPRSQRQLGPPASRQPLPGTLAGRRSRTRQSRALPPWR
Chain of Cytochrome P450 2C9 (P11712 whole entry): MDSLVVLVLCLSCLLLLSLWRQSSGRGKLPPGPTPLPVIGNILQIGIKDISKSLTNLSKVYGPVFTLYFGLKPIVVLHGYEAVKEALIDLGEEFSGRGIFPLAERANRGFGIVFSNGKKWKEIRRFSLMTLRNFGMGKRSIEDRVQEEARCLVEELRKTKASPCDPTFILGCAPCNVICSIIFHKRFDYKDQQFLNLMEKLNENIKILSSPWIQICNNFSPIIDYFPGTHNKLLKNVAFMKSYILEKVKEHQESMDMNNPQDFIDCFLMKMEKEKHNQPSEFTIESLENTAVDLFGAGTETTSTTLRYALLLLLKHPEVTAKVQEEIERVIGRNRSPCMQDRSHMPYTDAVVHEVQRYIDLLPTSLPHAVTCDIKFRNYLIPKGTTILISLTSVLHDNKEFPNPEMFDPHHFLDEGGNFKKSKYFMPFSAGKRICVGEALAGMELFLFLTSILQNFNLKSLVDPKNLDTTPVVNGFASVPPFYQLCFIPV
Chain of Mitogen-activated protein kinase kinase kinase kinase 2 (Q12851 whole entry): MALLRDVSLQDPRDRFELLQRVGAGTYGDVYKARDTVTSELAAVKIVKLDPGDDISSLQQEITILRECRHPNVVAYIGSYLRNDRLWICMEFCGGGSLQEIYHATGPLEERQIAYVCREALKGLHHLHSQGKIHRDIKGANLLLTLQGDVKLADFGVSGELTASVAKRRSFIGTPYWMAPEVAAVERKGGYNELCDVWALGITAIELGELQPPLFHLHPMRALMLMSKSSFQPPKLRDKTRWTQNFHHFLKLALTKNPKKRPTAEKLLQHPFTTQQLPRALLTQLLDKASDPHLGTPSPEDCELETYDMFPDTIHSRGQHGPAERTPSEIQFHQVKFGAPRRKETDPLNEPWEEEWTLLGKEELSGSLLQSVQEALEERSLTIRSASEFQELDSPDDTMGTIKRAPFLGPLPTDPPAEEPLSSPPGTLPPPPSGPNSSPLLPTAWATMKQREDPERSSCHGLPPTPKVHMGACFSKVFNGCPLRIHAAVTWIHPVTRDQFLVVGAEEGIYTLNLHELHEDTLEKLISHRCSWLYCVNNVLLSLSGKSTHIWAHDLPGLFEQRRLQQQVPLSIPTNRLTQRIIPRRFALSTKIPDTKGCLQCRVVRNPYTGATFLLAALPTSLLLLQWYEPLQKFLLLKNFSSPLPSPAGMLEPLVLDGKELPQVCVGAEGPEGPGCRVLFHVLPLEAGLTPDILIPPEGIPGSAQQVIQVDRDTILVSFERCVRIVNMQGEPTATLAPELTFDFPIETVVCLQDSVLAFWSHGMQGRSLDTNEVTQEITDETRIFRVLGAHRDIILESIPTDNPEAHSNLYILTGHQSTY
Chain of Tyrosine-protein kinase Lyn (P07948 whole entry): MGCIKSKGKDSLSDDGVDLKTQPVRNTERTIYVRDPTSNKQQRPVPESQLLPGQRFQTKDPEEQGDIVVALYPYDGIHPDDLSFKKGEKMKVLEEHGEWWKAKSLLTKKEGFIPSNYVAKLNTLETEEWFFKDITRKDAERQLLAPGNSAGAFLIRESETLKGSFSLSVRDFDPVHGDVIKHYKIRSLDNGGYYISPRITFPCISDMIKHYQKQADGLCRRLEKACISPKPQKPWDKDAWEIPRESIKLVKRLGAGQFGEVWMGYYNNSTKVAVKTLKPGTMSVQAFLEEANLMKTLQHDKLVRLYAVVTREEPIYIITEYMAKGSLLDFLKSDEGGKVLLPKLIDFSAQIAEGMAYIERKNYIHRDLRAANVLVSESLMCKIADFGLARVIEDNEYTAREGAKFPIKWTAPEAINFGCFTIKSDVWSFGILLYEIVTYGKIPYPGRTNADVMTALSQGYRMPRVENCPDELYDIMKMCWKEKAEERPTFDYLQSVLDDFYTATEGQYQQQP

COc1cc(Nc2ccc3c(n2)CN(C)C32CCN(C3COC3)CC2)c(C(N)=O)nc1-c1cccc2c1ncn2C
Activity [1]: Non-toxic
Activity [2]: Non-toxic
IC50 [3]: > 10 µM
IC50 [4]: > 10 µM
IC50 [5]: 0.0199 µM
AUC/dose [6]: 408.8 ng·h/mL
clearance [7]: 11.4 mL/min/kg
IC50 [8]: 1.89 µM
IC50 [9]: 1.74 µM
Vd [10]: 2.13 L/kg
Activity [11]: Non-toxic
bioavailability [12]: 62.5%
AUC/dose [13]: 593.6 ng·h/mL
IC50 [14]: 4.42 µM
Activity [15]: Non-toxic
IC50 [16]: > 50 µM
IC50 [17]: 5.14 µM
IC50 [18]: > 10 µM
